From article PMC10916352, “Safety Evaluation of a Prototypical Diazirine-Based Covalent Crosslinker and Molecular Adhesive” (International Journal of Toxicology, 2023)
Structures can show the parent of a compound that is named as a salt.

What was measured:
[1] = test system: Salmonella typhimurium TA98; assay: Bacterial reverse mutation test (Ames), strain TA98; type: cell-based; settings: positive control tested singular
Experimental: (§1) The reverse mutation test was performed to determine the potential of BondLynx and/or its metabolites to induce reverse mutations at the histidine locus of Salmonella typhimurium.[26],[27] The test employs strains of Salmonella typhimurium carrying mutations in the genes involved in histidine production, such that they are only able to grow in histidine supplemented culture media. Upon exposure to mutagenic materials, these mutations may be reversed, thereby restoring the ability to grow in histidine-free media. When grown in the presence of the test compound on media with a small amount of histidine, tester strains grow briefly to allow the opportunity for mutation, followed by proliferation of revertant colonies upon depletion of the provided histidine. Thus, the number of revertant colonies following incubation is indicative of the ability of the test compound to induce mutations.
(§2) Tests were performed on two strains of the bacteria (TA98 and TA100) in the absence and presence of an exogenous mammalian metabolic activation system (5% v/v S9). Positive controls and BondLynx were suspended in dimethyl sulfoxide (DMSO) for testing, and DMSO served as the vehicle control. Positive controls consisted of 2-nitrofluorene (10 μg/plate) for the TA98 strain without S9, methyl mesylate (650 μg/plate) for the TA100 strain without S9, and 2-aminoanthracene for both strains with S9 (1 μg/plate for TA98 and 5 μg/plate for TA100). Eight concentrations of BondLynx (1.7, 5.4, 17, 52, 164, 512, 1600 and 5000 μg/plate) were tested in triplicate. The vehicle control was tested in triplicate and the positive controls were tested singular.
(§3) Test solutions were prepared by pre-incubating .1 mL fresh bacterial culture (10^9 cells/mL), .1 mL of a BondLynx dilution or control solution, and .5 mL of S9 mix or .1 M phosphate buffer for 30 min before adding to 3 mL of molten (45 ± 2°C) top agar. After mixing in a vortex, agar solutions were poured onto selective agar plates. Upon solidification, the prepared plates were inverted and incubated at 37.0 ± 1.0°C for 48 ± 4 h. Following incubation, revertant colonies were counted with a Sorcerer Colony Counter. The condition of the bacterial background lawn was evaluated macroscopically and/or microscopically using a dissecting microscope when considered necessary.

[2] = test system: Salmonella typhimurium TA100; assay: Bacterial reverse mutation test (Ames), strain TA100; type: cell-based; settings: positive control tested singular
Experimental: as §1, §2, §3

[3] = 3T3 Neutral Red uptake cytotoxicity and phototoxicity assay; settings: mouse, Viability (%)
Experimental: (§4) The 3T3 Neutral Red uptake assay was used to evaluate the phototoxicity of BondLynx. The NRU assay makes use of Neutral Red dye, a weak cationic dye that penetrates the cell membrane by non-ionic passive diffusion and accumulates in lysosomes. Cytotoxicity of the test material is evaluated by measuring the OD540 to assess the uptake of Neutral Red dye.[28],[29] […] By measuring cytotoxicity in the absence vs presence of UV and visible light, the phototoxicity of the test material can be determined.[30],[31]
(§5) Cells were routinely trypsinized and passaged, at least once weekly, with a split ratio 1:3 to 1:4 to achieve a near confluent culture.
(§6) Stock solutions of both controls were freshly prepared on the day of testing. The vehicle control was 1% DMSO in EBSS for the positive control, EBSS for the negative control, and .5% ethanol in EBSS for BondLynx. BondLynx was dissolved in ethanol for testing. […] All controls and BondLynx were handled in the dark and tested in 8-fold.
(§7) In preparation for testing, cultures of 3T3 fibroblasts were trypsinized and resuspended in culture medium. […] A total of six plates were prepared in this manner – two each for the positive control, the negative control, and BondLynx. Following incubation, the cell culture medium was removed, and the wells washed with DPBS (Dulbecco’s phosphate-buffered saline). A 200 μL aliquot of each dilution of the test compound (BondLynx or a control) was added the first eight columns, and the appropriate vehicle control was added to the last four columns. All plates were incubated an additional 60 min before irradiating one plate for each test compound (+Irr) in a solar simulator with a WG320 nm filter for 22 min (equivalent to 5 J/cm^2 UV-A), while the second plate for each test compound (–Irr) was kept in the dark at room temperature. Subsequently, the test solutions were removed from the plates, and the cells were washed once with DPBS and suspended in 200 μL of supplemented DMEM to incubate for an additional 20-24 h.
(§8) Immediately following incubation, the confluency of each plate was visually assessed, and the culture medium was replaced with 100 μL of Neutral Red dye (50 μg/mL). The plates were incubated another 3.5 h before removing the dye, washing with 150 μL of DPBS, and shaking for 20-40 min in 150 μL Neutral Red destain solution (ethanol:acetic acid:distilled water, 50:1:49). The optical density at 540 nm was measured for each well and corrected by subtracting the appropriate blank.

[4] = test system: Balb/c 3T3 fibroblasts (clone 31); assay: as above; settings: for Corrected Mean OD540: 8 wells; for Photo Irritation Factor (PIF): non-irradiated IC50 divided by irradiated IC50
Experimental: as §4, §5, §6, §7, §8

[5] = test system: EPISKIN Small Model (human epidermis model); assay: In vitro skin irritation test, MTT viability; type: cell-based; settings: 15 min exposure, 42 h post-incubation
Experimental: Tests were performed in triplicate. […] Following exposure, samples were rinsed with phosphate buffered saline until no test item remain, dried carefully, and placed in a new 2 mL well with pre-warmed Maintenance Medium to incubate for 42 h. After incubation, cell culture inserts were dried carefully, transferred into a 12-well plate prefilled with 2 mL MTT in phosphate buffered saline (.3 mg/mL), and incubated for 3 h. Tissue samples were then dried, and a biopsy punch was taken. The epidermis was separated from the collagen matrix, and both were extracted with 500 μL isopropanol and stored for 70 h refrigerated. The amount of extracted formazan was measured in duplicate for each sample by the OD570.

Nc1ccc2cc3ccccc3cc2c1 [2-aminoanthracene, reference compound]
Revertant Colonies (With S9) ([1]; TA98, with S9, 1 μg/plate): 657
Revertant Colonies (With S9) ([2]; TA100, with S9, 5 μg/plate): 363

O=[N+]([O-])c1ccc2c(c1)Cc1ccccc1-2 [2-nitrofluorene, reference compound]
Revertant Colonies (Without S9) ([1]; TA98, without S9, 10 μg/plate): 1962

c1ccc2cc3ccccc3cc2c1 [anthracene]
viability at 82 min, 0.01 μg/mL ([3]; +Irr): 98.1%
viability at 82 min, 0.0316 μg/mL ([3]; +Irr): 60.3%
viability at 82 min, 0.1 μg/mL ([3]; +Irr): 3.9%
viability at 82 min, 0.316 μg/mL ([3]; +Irr): 4.1%
viability at 82 min, 1 μg/mL ([3]; +Irr): 4.2%
viability at 82 min, 3.16 μg/mL ([3]; +Irr): 4.2%
viability at 82 min, 10 μg/mL ([3]; +Irr): 3.3%
viability at 82 min, 31.6 μg/mL ([3]; +Irr): 8.01%
viability at 82 min, 0.01 μg/mL ([3]; –Irr): 103%
viability at 82 min, 0.0316 μg/mL ([3]; –Irr): 102%
viability at 82 min, 0.1 μg/mL ([3]; –Irr): 102%
viability at 82 min, 0.316 μg/mL ([3]; –Irr): 101%
viability at 82 min, 1 μg/mL ([3]; –Irr): 100%
viability at 82 min, 3.16 μg/mL ([3]; –Irr): 101%
viability at 82 min, 10 μg/mL ([3]; –Irr): 101%
viability at 82 min, 31.6 μg/mL ([3]; –Irr): 103%
Corrected Mean OD540 ([4]; +Irr, 0.01 μg/mL): 1.09
Corrected Mean OD540 ([4]; +Irr, 0.0316 μg/mL): 0.67
Corrected Mean OD540 ([4]; +Irr, 0.1 μg/mL): 0.043
Corrected Mean OD540 ([4]; +Irr, 0.316 μg/mL): 0.046
Corrected Mean OD540 ([4]; +Irr, 1 μg/mL): 0.047
Corrected Mean OD540 ([4]; +Irr, 3.16 μg/mL): 0.047
Corrected Mean OD540 ([4]; +Irr, 10 μg/mL): 0.037
Corrected Mean OD540 ([4]; +Irr, 31.6 μg/mL): 0.089
IC50 ([4]; Mus musculus, BALB/c3T3, light or radiation study, read-out: IC50 (50% inhibition of Neutral Red uptake), presence of irradiation): 0.03 µg/mL
Photo Irritation Factor (PIF) [4]: > 31.6
IC50 (50% inhibition of Neutral Red uptake), absence of irradiation ([4]; –Irr): no IC50
Corrected Mean OD540 ([4]; –Irr, 0.01 μg/mL): 1.15
Corrected Mean OD540 ([4]; –Irr, 0.0316 μg/mL): 1.14
Corrected Mean OD540 ([4]; –Irr, 0.1 μg/mL): 1.14
Corrected Mean OD540 ([4]; –Irr, 0.316 μg/mL): 1.13
Corrected Mean OD540 ([4]; –Irr, 1 μg/mL): 1.12
Corrected Mean OD540 ([4]; –Irr, 3.16 μg/mL): 1.13
Corrected Mean OD540 ([4]; –Irr, 10 μg/mL): 1.13
Corrected Mean OD540 ([4]; –Irr, 31.6 μg/mL): 1.15

CCCCCCCCCCCCOS(=O)(=O)[O-].[Na+] [SDS, sodium dodecyl sulphate]
Viability (%) ([4]; +Irr, 0.1 μg/mL): 100.0%
Corrected Mean OD540 ([4]; +Irr, 0.1 μg/mL): 1.17
Viability (%) ([4]; +Irr, 0.316 μg/mL): 99.1%
Corrected Mean OD540 ([4]; +Irr, 0.316 μg/mL): 1.16
Viability (%) ([4]; +Irr, 1 μg/mL): 101.7%
Corrected Mean OD540 ([4]; +Irr, 1 μg/mL): 1.19
Viability (%) ([4]; +Irr, 3.16 μg/mL): 100.0%
Corrected Mean OD540 ([4]; +Irr, 3.16 μg/mL): 1.17
Viability (%) ([4]; +Irr, 10 μg/mL): 95.7%
Corrected Mean OD540 ([4]; +Irr, 10 μg/mL): 1.12
Viability (%) ([4]; +Irr, 31.6 μg/mL): 18.8%
Corrected Mean OD540 ([4]; +Irr, 31.6 μg/mL): 0.22
Viability (%) ([4]; +Irr, 100 μg/mL): 0.6%
Corrected Mean OD540 ([4]; +Irr, 100 μg/mL): 0.007
Viability (%) ([4]; +Irr, 316 μg/mL): 0.5%
Corrected Mean OD540 ([4]; +Irr, 316 μg/mL): 0.006
IC50 (50% inhibition of Neutral Red uptake), presence of irradiation ([4]; +Irr, 5 J/cm^2 UV-A): 21.65 µg/mL
Photo Irritation Factor (PIF) [4]: 1.14
IC50 (50% inhibition of Neutral Red uptake), absence of irradiation ([4]; –Irr): 27.4 µg/mL
Viability (%) ([4]; –Irr, 0.1 μg/mL): 102.0%
Corrected Mean OD540 ([4]; –Irr, 0.1 μg/mL): 1.25
Viability (%) ([4]; –Irr, 0.316 μg/mL): 99.6%
Corrected Mean OD540 ([4]; –Irr, 0.316 μg/mL): 1.22
Viability (%) ([4]; –Irr, 1 μg/mL): 101.2%
Corrected Mean OD540 ([4]; –Irr, 1 μg/mL): 1.24
Viability (%) ([4]; –Irr, 3.16 μg/mL): 101.2%
Corrected Mean OD540 ([4]; –Irr, 3.16 μg/mL): 1.24
Viability (%) ([4]; –Irr, 10 μg/mL): 98.8%
Corrected Mean OD540 ([4]; –Irr, 10 μg/mL): 1.21
Viability (%) ([4]; –Irr, 31.6 μg/mL): 26.1%
Corrected Mean OD540 ([4]; –Irr, 31.6 μg/mL): 0.32
Viability (%) ([4]; –Irr, 100 μg/mL): 0.2%
Corrected Mean OD540 ([4]; –Irr, 100 μg/mL): 0.003
Viability (%) ([4]; –Irr, 316 μg/mL): 0.04%
Corrected Mean OD540 ([4]; –Irr, 316 μg/mL): 0.0005
Mean ± SD (OD570 corrected) [5]: .039 ± .005
Cell Viability (%) ([5]; relative to phosphate buffered saline): 4.0%

COS(C)(=O)=O [Methyl mesylate, methyl mesylate, reference compound]
Revertant Colonies (Without S9) ([2]; TA100, without S9, 650 μg/plate): 646
